Laboratory results reported in US20050009893A1, “Treatment of high blood pressure during the acute phase of a stroke” (Solvay Pharmaceuticals GmbH, priority 2001, published 2005).

Assay: ACCESS study (acute candesartan cilexetil evaluation in stroke survivors): early antihypertensive treatment after acute stroke versus placebo
Assay type: in vivo
Details: 342 enrolled stroke patients
Source text: In order to clarify the question, the ACCESS study (acute candesarten cilexetil evaluation in stroke survivors) was conceived, which has now been completed.
The rational basis of the ACCESS study was the question whether early treatment of elevated blood pressure values in stroke treatment using a substance which affects the renin-angiotensin system in a blocking manner, could reduce the morbidity, mortality and neurological deficits resulting from such strokes. The main question posed related to the use of early antihypertensive treatment of patients with elevated blood pressure values after a stroke. […]
After enrollment of the patients in the study, a randomized therapy with candesartancilexetil or placebo was carried out. Depending upon the measured blood pressure values and patient specific criteria, the therapy was begun with once daily administration of one half to one tablet (corresponding to from 4 to 8 mg candesartancilexetil or placebo). […]

## CCOc1nc2cccc(C(=O)O)c2n1Cc1ccc(-c2ccccc2-c2nnn[nH]2)cc1 [candesartan]
Early treatment from 72 hours up to and including seven days after the stroke, placebo group first treated after one week (30 events)
  cardiovascular end point (number of events) in the course of a twelve month observation period: 17
Twelve month observation period, 17 vs. 30
  difference with respect to the cardiovascular end point in favor of early treatment versus placebo group: about 43%
